Consider one compound from patent US20200268864A1, “CANCER VACCINE COMPOSITIONS AND METHODS FOR USING SAME TO TREAT CANCER” (Dana-Farber Cancer Institute, Inc., priority 2017, published 2020).

Molecules are shown by their SMILES. “Also recorded” adds a separate entry of the source.

For one experiment, the system named is Brca1-null ID8 tumors. In words: Subcutaneous Brca1-null ID8 tumors in WT or STING-KO mice. It counts as in vivo, mouse. On the procedure: Single cells were obtained by digestion of primary ovarian tumors in collagenase buffer and then cultured in MOT media (DMEM/F12, 0.6% FBS, 10 ng/ml EGF, hydrocortisone 1 μg/ml, cholera toxin 1 ng/ml, 100 μg/ml penicillin-streptomycin, 5 μM Y27632). Tumor cells were transduced with lentiviral vector encoding luciferase (pLenti-blasticidin-luciferase) and then subjected to 3 days antibiotic selection with blasticidin 2 μg/ml. These luciferased tumors were transplanted orthotopically into syngeneic FVB/NJ mice to generated tumors for drug evaluation. Olaparib (AZD2281) was used by diluting 100 mg/ml stocks in DMSO with 10% 2-hydroxyl-propyl-β-cyclodextrine/PBS and administered daily by i.p. injection at dose of 50 mg/kg body weight. Mouse anti-PD-1 monoclonal antibody kindly provided by Gordon Freeman at DFCI was diluted in PBS (250 μg/100 μl/mouse) and injected by i.p. every 3 days. BX795 (Cat # HY-10514/CS-0259, MedChem Express) was prepared in DMSO (100 mg/ml) as stock solution and diluted in (25% PEG400+0.5% Tween)/PBS and administered daily by i.p. injection at dose of 30 mg/kg body weight. Anti-IFNAR1 antibody (Cat # BE0241; clone, MAR1-5A3; InVivoMab) was diluted in PBS (200 μg/100 μl/mouse) and injected by i.p. every 3 days. Tumor-bearing mice were equivalently divided into control and treatment groups according to the luminescent intensity. The endpoints were determined by tumor burden and ascites. For the CD8 depletion experiment, mice were injected intraperitoneally with anti-CD8 antibody (400 μg; clone YTS 169.4, BioXcell) 24 and 48 h before beginning olaparib treatment (50 mg/kg/day) and every 4 days thereafter.
Brca-1 deficient ID8 cells were generated using a CRISPR double nickase plasmid. […] Due to a lack of a reliable mouse BRCA1 antibody for Western blot, cells were analyzed by DNA sequencing to confirm the disruption of functional Brca1 allele. […]

Another experiment relates to PBM tumor-bearing mice. The experiment is described as follows: Flow cytometry of tumor-infiltrating immune cells in PBM tumors. Particulars: mouse, in vivo. On the procedure: Tumors were first mechanically disrupted by chopping, then chemically digested in collagenase buffer (8 mL DMEM, 0.1 mL 1M HEPES, 0.5 mL FBS, 0.2 mL Pen/Strep, 1 m, 10× collagenase/hyaluronidase (Stemcell Technologies), 0.2 mL of 1 mg/mL DNase I (Stemcell Technologies) at 37° C. for 45 min. Single-cell suspensions of spleen and lymph nodes were obtained by mashed through a 70 um strainer using the plunger of a 3 mL or 5 mL syringe. Single cells suspensions were treated with red blood lysis buffer (4 mL NH4Cl+1 mL PBS with 2% calf serum) and washed with FACS buffer. Single cells suspensions were incubated with LIVE/DEAD Fixable Aqua Dead Cell Stain (Life Technologies, Cat # L34965) for 30 min and then blocked with anti-CD16/32 (BioLegend, clone 93) for 20 min on ice. Samples were then incubated with appropriate antibodies for 30 min. on ice. The Foxp3 staining buffer set (eBioscience, Cat #00-5523-00) was applied for intracellular markers staining. For the intracellular cytokine analysis, cells were stimulated with Leukocyte Activation Cocktail (BD Biosciences, Cat #550583) at 37° C. for 5 hours prior to FACS staining. The following antibodies were used in the experiments and were purchased from BioLegend unless otherwise indicated: CD45 (clone 30-F11), TCRβ (clone H57-597), CD4 (clone RM4-5), CD8 (clone 53-6.7), CD44 (clone IM7), CD62L (MEL-14), CD25 (PC61), IFNγ (clone XMG1.2), TNFα(clone MP6-XT22), PD-1 (clone 29F.1A12), Tim-3 (clone RMT3-23), LAG-3 (clone C9B7W), CD11b (clone M1/70), CD11c (clone […]), F4/80 (clone BM8), Gr-1 (clone RB6-BC5), Ly-6C (clone HK1.4), Ly-6G (clone 1A8), MHCII (clone M5/114.15.2), CD80 (clone 16-10A1), CD86 (clone GL-1), MHC1 (clone KH114). FoxP3 (clone FJK-16 s; eBioscience), Phospho-IRF-3 (Ser396) (clone D6O1M, Cell signaling technology), Phospho-TBK1/NAK (Ser172) (clone D52C2, Cell signaling technology), and LIVE/DEAD® Fixable Aqua Dead Cell Stain Kit (Life Technologies Cat L34965). Flow cytometry was performed on an LSR II (BD Biosciences) or LSRFortessa™ HTS (BD Biosciences) at the DFCI flow cytometry core facility, and all the data were analyzed using FlowJo software.
Background: Flow cytometry measures light scatter and fluorescence of single cells or particles in a stream.

For `O=C(c1cc(Cc2n[nH]c(=O)c3ccccc23)ccc1F)N1CCN(C(=O)C2CC2)CC1` [olaparib, Olaparib], in the experiment on Brca1-null ID8 tumors (STING-KO hosts), the “tumor growth (tumor weights)” value is given as “little effect”. In addition, the “abundance of intratumoral p-TBK1+ DCs” value with Brca1-null ID8 tumors (WT host) was “increased abundance”. Besides, in the experiment with Brca1-null ID8 tumors (WT mice), the “tumor growth (tumor weights)” value is “significantly inhibited the tumor growth”. In the experiment on PBM tumor-bearing mice, the “CD80, CD86 and MHC class II expression on tumor associated DCs” value is recorded as “increased levels”; the “CD103+ DCs at the tumor site” value is reported as “increased”; the “IFNγ and TNFα production by intratumoral CD4+ and CD8+ T cells” value is on record as “significantly increased the production”; the “PD-1/TIM-3 and PD-1/Lag3 co-expression (exhausted state) on intratumoral CD8+ T cells” value is reported as “reduced expression; also recorded: reduced the exhausted state”. For the same compound, in the experiment on PBM tumor-bearing mice, the “effector CD8+ T cells in malignant ascites of the peritoneal cavity” value is reported as “Increase”, the “frequency of intratumoral FoxP3+ Treg” value is reported as “not changed”, the “immune cell (CD45+) infiltration into tumor” value is reported as “Increased” and the “intratumoral MDSC cells (CD11b+Gr1+; gMDSC)” value is “reduced”. For the same compound, the “number of intratumoral CD4+ and CD8+ T cells” value with PBM tumor-bearing mice is listed as “significantly increased; also recorded: increased the number”. Moreover, the “intratumoral MDSC cells (CD11b+Gr1+; gMDSC)” value in the experiment with PBM tumor-bearing mice (listed as Olaparib) was “decrease”.
